# Measured values published in patent US20070043049A1, “Substituted heterocyclic diarylamine analogues” (Neurogen Corporation, priority 2003, published 2007).
# Molecular target: T1, human capsaicin receptor (Homo sapiens, UniProt Q8NER1)
# T1 construct: pBK-CMV expression construct encoding the full length human capsaicin receptor; expressed in transfected cells
# Assay: Calcium mobilization assay, determination of antagonist activity (Example 6)
# Format: cell-based
# Settings: 50% decrease in fluorescence response of cells expressing human capsaicin receptor exposed to capsaicin
# Description: A cDNA encoding full length human capsaicin receptor (SEQ ID NO:1, 2 or 3 of U.S. Pat. No. 6,482,611) was subcloned in the plasmid pBK-CMV (Stratagene, La Jolla, Calif.) for recombinant expression in mammalian cells.
# Human embryonic kidney (HEK293) cells were transfected with the pBK-CMV expression construct encoding the full length human capsaicin receptor using standard methods. The transfected cells were selected for two weeks in media containing G418 (400 μg/ml) to obtain a pool of stably transfected cells. Independent clones were isolated from this pool by limiting dilution to obtain clonal stable cell lines for use in subsequent experiments.
# Cells transfected with expression plasmids (as described in Example 4) and thereby expressing human capsaicin receptor are seeded and grown to 70-90% confluency in FALCON black-walled, clear-bottomed 96-well plates (#3904, BECTON-DICKINSON, Franklin Lakes, N.J.). The culture medium is emptied from the 96 well plates and FLUO-3 AM calcium sensitive dye (Molecular Probes, Eugene, Oreg.) is added to each well (dye solution: 1 mg FLUO-3 AM, 440 μL DMSO and 440 μl 20% pluronic acid in DMSO, diluted 1:250 in Krebs-Ringer HEPES (KRH) buffer (25 mM HEPES, 5 mM KCl, 0.96 mM NaH2PO4, 1 mM MgSO4, 2 mM CaCl2, 5 mM glucose, 1 mM probenecid, pH 7.4), 50 μl diluted solution per well). Plates are covered with aluminum foil and incubated at 37° C. for 1-2 hours in an environment containing 5% CO2. After the incubation, the dye is emptied from the plates, and the cells are washed once with KRH buffer, and resuspended in KRH buffer.
# To measure the ability of a test compound to agonize or antagonize a calcium mobilization response in cells expressing capsaicin receptors to capsaicin or other vanilloid agonist, the EC50 of the agonist capsaicin is first determined. An additional 20 μl of KRH buffer and 1 μl DMSO is added to each well of cells, prepared as described above. 100 μl capsaicin in KRH buffer is automatically transferred by the FLIPR instrument to each well. Capsaicin-induced calcium mobilization is monitored using either FLUOROSKAN ASCENT (Labsystems; Franklin, Mass.) or FLIPR (fluorometric imaging plate reader system; Molecular Devices, Sunnyvale, Calif.) instruments. Data obtained between 30 and 60 seconds after agonist application are used to generate an 8-point concentration response curve, with final capsaicin concentrations of 1 nM to 3 μM. KALEIDAGRAPH software (Synergy Software, Reading, Pa.) is used to fit the data to the equation: y=a*(1/(1+(b/x)^c)) to determine the 50% excitatory concentration (EC50) for the response. In this equation, y is the maximum fluorescence signal, x is the concentration of the agonist or antagonist (in this case, capsaicin), a is the Emax, b corresponds to the EC50 value and c is the Hill coefficient. Determination of Agonist Activity
# Test compounds are dissolved in DMSO, diluted in 20 μl KRH buffer so that the final concentration of test compounds in the assay well is between 1 μM and 5 μM, and added to cells prepared as described above. The 96 well plates containing prepared cells and test compounds are incubated in the dark, at room temperature for 0.5 to 6 hours. It is important that the incubation not continue beyond 6 hours. Just prior to determining the fluorescence response, 100 μl capsaicin in KRH buffer at twice the EC50 concentration determined as described above is automatically added by the FLIPR instrument to each well of the 96 well plate for a final sample volume of 200 μl and a final capsaicin concentration equal to the EC50. The final concentration of test compounds in the assay wells is between 1 μM and […]. […] The concentration of antagonist required to provide a 50% decrease, relative to the response observed in the presence of capsaicin and without antagonist, is the IC50 for the antagonist, and is preferably below 1 micromolar, 100 nanomolar, 10 nanomolar or 1 nanomolar.
# T1 sequence (Q8NER1 whole entry): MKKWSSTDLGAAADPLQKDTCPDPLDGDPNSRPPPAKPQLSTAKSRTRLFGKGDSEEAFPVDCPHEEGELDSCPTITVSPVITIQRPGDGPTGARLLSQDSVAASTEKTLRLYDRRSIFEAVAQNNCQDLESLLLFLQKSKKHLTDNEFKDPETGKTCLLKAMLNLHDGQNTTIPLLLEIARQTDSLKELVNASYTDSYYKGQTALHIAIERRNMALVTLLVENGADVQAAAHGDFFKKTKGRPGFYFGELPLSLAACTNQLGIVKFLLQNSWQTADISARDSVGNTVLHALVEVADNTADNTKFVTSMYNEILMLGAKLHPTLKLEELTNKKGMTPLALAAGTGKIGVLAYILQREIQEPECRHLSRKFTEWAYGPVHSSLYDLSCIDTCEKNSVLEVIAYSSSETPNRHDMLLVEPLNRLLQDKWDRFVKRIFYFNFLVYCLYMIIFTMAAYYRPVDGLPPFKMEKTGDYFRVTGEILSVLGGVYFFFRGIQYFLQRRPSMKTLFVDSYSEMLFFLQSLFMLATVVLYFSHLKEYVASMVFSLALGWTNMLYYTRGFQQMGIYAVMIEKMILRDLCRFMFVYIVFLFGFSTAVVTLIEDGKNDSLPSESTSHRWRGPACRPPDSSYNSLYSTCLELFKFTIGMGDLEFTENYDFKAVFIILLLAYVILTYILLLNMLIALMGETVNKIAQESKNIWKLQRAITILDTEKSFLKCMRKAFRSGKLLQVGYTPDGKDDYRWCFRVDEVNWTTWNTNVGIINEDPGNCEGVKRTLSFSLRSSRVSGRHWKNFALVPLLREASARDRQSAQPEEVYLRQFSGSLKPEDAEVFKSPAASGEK
row,Structure (SMILES),IC50
1,"C[C@@H]1CN(c2ncccc2S(C)(=O)=O)CCN1c1nc(Nc2ccc(F)c(F)c2)nc(N2CCOCC2)n1 [Compound 103, (3,4-Difluoro-phenyl)-{4-[4-(3-methanesulfonyl-pyridin-2-yl)-2-methyl-piperazin-1-yl]-6-morpholin-4-yl-[1,3,5]triazin-2-yl}-amine (R)]",≤ 1000 nM
2,"C[C@H]1CN(c2ncccc2C(F)(F)F)CCN1c1nc(Cl)nc(Nc2ccc(C(F)(F)F)cc2)n1 [Compound 13, {4-Chloro-6-[2-methyl-4-(3-trifluoromethyl-pyridin-2-yl)-piperazin-1-yl]-[1,3,5]triazin-2-yl}-(4-trifluoromethyl-phenyl)-amine (S)]",≤ 1000 nM
3,"FC(F)(F)c1cccnc1N1CCN(c2nc(Nc3ccc(Cl)cc3)nc(N3CCOCC3)n2)CC1 [Compound 63, (4-Chloro-phenyl)-{4-morpholin-4-yl-6-[4-(3-trifluoromethyl-pyridin-2-yl)-piperazin-1-yl]-[1,3,5]triazin-2-yl}-amine]",≤ 1000 nM
4,"Fc1ccc(Nc2nc(N3CCOCC3)nc(N3CCN(c4ncccc4C(F)(F)F)CC3)n2)cc1F [Compound 69, (3,4-Difluoro-phenyl)-{4-morpholin-4-yl-6-[4-(3-trifluoromethyl-pyridin-2-yl)-piperazin-1-yl]-[1,3,5]triazin-2-yl}-amine]",≤ 1000 nM
5,"CCCN(CCC)c1nc(Nc2ccc(C(F)(F)F)cc2)nc(N2CCN(c3ncccc3Cl)C[C@H]2C)n1 [Compound 33, 6-[4-(3-Chloro-pyridin-2-yl)-2-methyl-piperazin-1-yl]-N,N-dipropyl-N′-(4-trifluoromethyl-phenyl)-[1,3,5]triazine-2,4-diamine (R)]",≤ 1000 nM
6,"COc1ccccc1N1CCN(c2nc(Nc3ccc(C(C)(C)C)cc3)nc(OCc3ccccc3C(F)(F)F)n2)CC1 [Compound 12, (4-tert-Butyl-phenyl)-[4-[4-(2-methoxy-phenyl)-piperazin-1-yl]-6-(2-trifluoromethyl-benzyloxy)-[1,3,5]triazin-2-yl]-amine]",≤ 1000 nM
7,"CC(C)CCNc1nc(Nc2ccc(C(F)(F)F)cc2)nc(N2CCN(c3ncccc3C(F)(F)F)C[C@@H]2C)n1 [Compound 15, N-(3-Methyl-butyl)-6-[2-methyl-4-(3-trifluoromethyl-pyridin-2-yl)-piperazin-1-yl]-N′-(4-trifluoromethyl-phenyl)-[1,3,5]triazine-2,4-diamine (S)]",≤ 1000 nM
8,"CCCCc1ccc(-c2nc(Nc3ccc(C(F)(F)F)cc3)nc(N3CCN(c4ncccc4Cl)C[C@H]3C)n2)cc1 [Compound 115, {4-(4-Butyl-phenyl)-6-[4-(3-chloro-pyridin-2-yl)-2-methyl-piperazin-1-yl]-[1,3,5]triazin-2-yl}-(4-trifluoromethyl-phenyl)-amine]",≤ 1000 nM
9,"C[C@@H]1CN(c2ncccc2Cl)CCN1c1nc(Cl)cc(Nc2ccc(C(F)(F)F)cc2)n1 [Compound 17, {6-Chloro-2-[4-(3-chloro-pyridin-2-yl)-2-methyl-piperazin-1-yl]-pyrimidin-4-yl}-(4-trifluoromethyl-phenyl)-amine (R)]",≤ 1000 nM
10,"COc1ccc(Nc2nc(N3CCOCC3)cc(N3CCN(c4ncccc4C(F)(F)F)CC3)n2)cc1 [Compound 89, (4-Methoxy-phenyl)-{4-morpholin-4-yl-6-[4-(3-trifluoromethyl-pyridin-2-yl)-piperazin-1-yl]-pyrimidin-2-yl}-amine]",≤ 1000 nM
11,"CCCCN(CCCC)c1nc(Nc2ccc(C(F)(F)F)cc2)nc(N2CCN(c3ncccc3Cl)C[C@H]2C)n1 [Compound 34, N,N-Dibutyl-6-[4-(3-chloro-pyridin-2-yl)-2-methyl-piperazin-1-yl]-N′-(4-trifluoromethyl-phenyl)-[1,3,5]triazine-2,4-diamine (R)]",≤ 1000 nM
12,"FC(F)(F)c1cccnc1N1CCN(c2cc(N3CCOCC3)nc(Nc3cccc(Cl)c3)n2)CC1 [Compound 84, (3-Chloro-phenyl)-{4-morpholin-4-yl-6-[4-(3-trifluoromethyl-pyridin-2-yl)-piperazin-1-yl]-pyrimidin-2-yl}-amine]",≤ 1000 nM

# Second part, the molecule after the results:
row,IC50,Structure (SMILES)
1,≤ 1000 nM,"Fc1cccc(Nc2nc(N3CCCC3)nc(N3CCN(c4ncccc4Cl)CC3)n2)c1 [Compound 73, {4-[4-(3-Chloro-pyridin-2-yl)-piperazin-1-yl]-6-pyrrolidin-1-yl-[1,3,5]triazin-2-yl}-(3-fluoro-phenyl)-amine]"
2,≤ 1000 nM,"CCN(CC)c1nc(Nc2ccc(F)c(F)c2)nc(N2CCN(c3ccccn3)CC2)n1 [Compound 95, N-(3,4-Difluoro-phenyl)-N′,N′-diethyl-6-(4-pyridin-2-yl-piperazin-1-yl)-[1,3,5]triazine-2,4-diamine]"
3,≤ 1000 nM,"C[C@@H]1CN(c2ncccc2Cl)CCN1c1nc(Nc2ccc(F)c(F)c2)nc(N2CCOCC2)n1 [Compound 101, {4-[4-(3-Chloro-pyridin-2-yl)-2-methyl-piperazin-1-yl]-6-morpholin-4-yl-[1,3,5]triazin-2-yl}-(3,4-difluoro-phenyl)-amine (R)]"
4,≤ 1000 nM,"CNc1nc(Nc2ccc(C(F)(F)F)cc2)nc(N2CCN(c3ncccc3Cl)CC2)n1 [Compound 46, 6-[4-(3-Chloro-pyridin-2-yl)-piperazin-1-yl]-N-methyl-N′-(4-trifluoromethyl-phenyl)-[1,3,5]triazine-2,4-diamine]"
5,≤ 1000 nM,"Fc1cccc(Nc2nc(N3CCCCC3)nc(N3CCN(c4ncccc4Cl)CC3)n2)c1 [Compound 70, {4-[4-(3-Chloro-pyridin-2-yl)-piperazin-1-yl]-6-piperidin-1-yl-[1,3,5]triazin-2-yl}-(3-fluoro-phenyl)-amine]"
6,≤ 1000 nM,"CCCNc1nc(Nc2cccc(F)c2)nc(N2CCN(c3ncccc3Cl)CC2)n1 [Compound 81, 6-[4-(3-Chloro-pyridin-2-yl)-piperazin-1-yl]-N-(3-fluoro-phenyl)-N′-propyl-[1,3,5]triazine-2,4-diamine]"
7,≤ 1000 nM,"Cc1nc(Nc2ccc(C(F)(F)F)cc2)nc(N2CCN(c3ncccc3Cl)CC2)n1 [Compound 82, {4-[4-(3-Chloro-pyridin-2-yl)-piperazin-1-yl]-6-methyl-[1,3,5]triazin-2-yl}-(4-trifluoromethyl-phenyl)-amine]"
8,≤ 1000 nM,"CCN(C)c1nc(Nc2cccc(F)c2)nc(N2CCN(c3ncccc3Cl)CC2)n1 [Compound 72, 6-[4-(3-Chloro-pyridin-2-yl)-piperazin-1-yl]-N-ethyl-N′-(3-fluoro-phenyl)-N-methyl-[1,3,5]triazine-2,4-diamine]"
9,≤ 1000 nM,"CCN(c1nc(Nc2ccc(C(F)(F)F)cc2)nc(N2CCN(c3ncccc3Cl)CC2)n1)C(C)C [Compound 50, 6-[4-(3-Chloro-pyridin-2-yl)-piperazin-1-yl]-N-ethyl-N-isopropyl-N′-(4-trifluoromethyl-phenyl)-[1,3,5]triazine-2,4-diamine]"
10,≤ 1000 nM,"FC(F)(F)c1cccnc1N1CCN(c2nc(Nc3cccc(Cl)c3)nc(N3CCOCC3)n2)CC1 [Compound 67, (3-Chloro-phenyl)-{4-morpholin-4-yl-6-[4-(3-trifluoromethyl-pyridin-2-yl)-piperazin-1-yl]-[1,3,5]triazin-2-yl}-amine]"
11,≤ 1000 nM,"C[C@@H]1CN(c2ncccc2Cl)CCN1c1nc(Nc2cccc(F)c2)nc(N2CCOCC2)n1 (stereo in doubt) [Compound 104, {4-[4-(3-Chloro-pyridin-2-yl)-2-methyl-piperazin-1-yl]-6-morpholin-4-yl-[1,3,5]triazin-2-yl}-(3-fluoro-phenyl)-amine]"
